GI50 and TGI data for 33 compounds are collected here from PubChem BioAssay (NCI).

The GI50 is the concentration that inhibits growth by half. Usually TGI stands for the concentration at which net growth stops. A higher TGI goes with lower sensitivity of the cells.

This assay concerns MDA-MB-468 breast. The experiment in a line: DTP human tumour cell line panel, 48 h.

The structures appear in SMILES notation.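 Protocol summary: plate cells (96-well), add compound at 5 concentrations, incubate 48 h, interpolate endpoints linearly. GI50: concentration for 50% inhibition of growth. TGI: concentration producing complete growth inhibition.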

Regarding `COc1c(C)c2c(c(O)c1C/C=C(\C)CCC(=O)OCCN1CCOCC1)C(=O)OC2`, the GI50 was 0.421 µM and the TGI was greater than 100 µM.

Take `COc1cc(NC(=O)c2cc(OC)c3ccn(C)c3c2)cc2c1C[C@]1(C)CC[C@@H](O)C(C)(C)[C@H]1O2`: the GI50 was 6.61 µM and the concentration for total growth inhibition (TGI) is greater than 100 µM.

In the case of `CC([C@H]1CCC2C3CCC4C[C@@H](NC=O)CC[C@]4(C)C3CC[C@@]21C)N(C)C` (stereo not given in full), the GI50 is 1.42 µM and the TGI came out at 3.73 µM. The like results for `Fc1ccc(Oc2nccc(-c3c(-c4ccc(F)cc4)ncn3C3CCNCC3)n2)cc1` were, in that order, 4.7 µM and greater than 24 µM. The like results for `Nc1ccc(C(=O)c2ccc(N)c(Br)c2)cc1Br` were, in that order, 0.248 µM and 0.709 µM.

With `N=C1c2nc3n(c2C(=O)c2nc4n(c21)CCCC4)CCCC3`, the GI50 was 8.95 µM and the total growth inhibition concentration (TGI) was determined as 53.4 µM. The like results for `Cc1ccccc1CN1CC2=C(CCN(Cc3ccccc3)C2=O)N2CCN=C12` were, in that order, 0.773 µM and 6.83 µM. The like results for `CCN1C(=O)N(CC)C2C1NN=c1s/c(=C3\C(=O)N(CC(C)C)c4ccccc43)c(=O)n12` (stereo not given) were, in that order, 0.351 µM and 15.9 µM. The like results for `COc1cc(Cl)cc(-c2nn(C(=O)NCCN3CCN(C)CC3)cc2-c2ccncc2)c1` were, in that order, 10.5 µM and 49.9 µM.

With `CC(=O)Nc1cccc(-n2cnc3cc(-c4ccc(O)cc4)ccc32)c1`, the GI50 is 0.259 µM and the TGI is 0.65 µM. Turning to `C=C1CC[C@@]2(C#N)[C@H]3[C@H](CC[C@@H]2C)[C@@H](C)C[C@@H](CC(C)(C)C#N)[C@H]13`, the GI50 is 2.79 µM and the TGI is 25.9 µM. The like results for `C/C=C(\C)C(=O)N[C@H]1[C@@H](OC(C)=O)C[C@]2(C)C3CC[C@@]4(C)C(CC[C@@H]4C(C)N(C)C)C3CCC2[C@H]1O` (stereo not given in full) were, in that order, 2.02 µM and 9.67 µM. The like results for `CCN(CC)CCOc1ccc(Nc2ncc3cc(-c4ccc(O)cc4)c(=O)n(C)c3n2)cc1` were, in that order, 3.9 µM and 24.2 µM.

As to `O=[N+]([O-])c1ccc(-c2nc(N(CCO)CCO)c3ccccc3n2)o1`, the GI50 is 0.0553 µM and the TGI was found to be 0.195 µM. The like results for `O=C(Nc1ccc(-n2cc(-c3ccncc3)c(-c3ccc(Cl)c(O)c3)n2)cc1)Nc1cc(C(F)(F)F)cc(C(F)(F)F)c1` were, in that order, 1.79 µM and 5.04 µM. With `COc1ccc(/C=C\c2cc(OC)c(OC)c(OC)c2)cc1OC(=O)C(N)CCC(=O)O` (stereo not given), the total growth inhibition concentration (TGI) is greater than 100 µM. Turning to `COc1ccc2c(c1)nc(N)c1c3cc(OC)c(OC)cc3cn21`, the GI50 was 0.0339 µM and the TGI is 12.5 µM.

Turning to `COc1ccccc1N1CCN(C2=NN=C(c3cccc(Cl)c3)c3ccccc3C2)CC1`, the concentration for 50% growth inhibition (GI50) is 0.382 µM and the TGI was greater than 100 µM. The like results for `CCCCCCCCCCC(C[N+](C)(C)C/C=C/c1ccccc1)C(O)c1ccccc1` (stereo not given) were, in that order, 1.37 µM and 3.06 µM. The like results for `CC(=O)Nc1nc(SCc2ccccc2)c2ncn(C(C)=O)c2n1` were, in that order, 24.8 µM and greater than 100 µM. The like results for `CCCCCNC(=O)[C@@H]1CCCN2C(=O)CC[C@H](NC(=O)[C@H](Cc3ccc(OP(=O)(O)O)cc3)NC(C)=O)C(=O)N12` were, in that order, greater than 25 µM and greater than 25 µM. Regarding `O=C(N/N=C\c1ccc(F)cc1)c1ccc2nc(-c3ccc(Br)cc3)[nH]c2c1`, the GI50 was 1.98 µM and the TGI was 3.99 µM. For the compound `c1ccc2[nH]c(SSc3nc4ncncc4[nH]3)nc2c1`, the GI50 is 0.232 µM and the TGI is greater than 76.5 µM. With `O=C(Nc1ccc(-n2cc(-c3ccncc3)c(-c3ccc(O)c(Cl)c3)n2)cc1)c1cc(Cl)cc(Cl)c1`, the GI50 is 3.17 µM and the TGI is greater than 32.5 µM. For the compound `CC1(C)NCCC[C@]2(C)[C@H]3C=CC4=C5C[C@](C)(CO)CC[C@]5(C)CC[C@@]4(C)[C@]3(C)CC[C@@H]12`, the GI50 is 10.4 µM and the TGI is 24 µM. The like results for `O=C(NC1CC1)c1ccc(-c2nc3ccc4[nH]ncc4c3c3c2CCCC3)cc1` were, in that order, 1.5 µM and 7.14 µM.

In the case of `Cc1cc(C)c(O)c(CNCCCCCCNCc2cc(C)cc(C)c2O)c1`, the GI50 was 1.6 µM and the TGI stood at 3.12 µM. On to `c1ccc(C(=NNc2nc3ccccc3o2)c2ccccn2)nc1`, for which the GI50 is 0.0285 µM and the TGI is 0.196 µM. For the compound `CCC1=C[C@@H]2CN(C1)Cc1c([nH]c3ccccc13)[C@@](C(=O)OC)(c1cc3c(cc1OC)N(C=O)[C@H]1[C@@](O)(C(=O)OC)[C@H](OC(C)=O)[C@]4(CC)[C@@H]5C[C@@H]5CN5CC[C@]31[C@@H]54)C2`, the GI50 is less than 0.000625 µM and the TGI was greater than 6.25 µM. The like results for `CCCc1ccc(S(=O)(=O)N[C@H]2CC[C@H]3[C@@H]4CCc5cc(O)ccc5[C@H]4CC[C@]23C)cc1` were, in that order, 2.32 µM and 9.51 µM. The like results for `Nc1nc(Nc2ccc3c(c2)CC[C@@H](N2CCCC2)CC3)nn1-c1cc2c(nn1)-c1ccccc1CCC2` were, in that order, 1.75 µM and 3.39 µM.

Consider `COc1ccc(/C=C2\CN(C(=O)C(Cl)Cl)C/C(=C\c3ccc(OC)c(OC)c3)C2=O)cc1OC`, for which the GI50 was 0.224 µM and the TGI is 0.621 µM. The like results for `CCCCCCCCCNCCCCCCCCC` were, in that order, 1.77 µM and 3.22 µM.
